ChEMBL document CHEMBL1154048, “Design, synthesis and pharmacological evaluation of new 1-[3-(4-arylpiperazin-1-yl)-2-hydroxy-propyl]-3,3-diphenylpyrrolidin-2-one derivatives with antiarrhythmic, antihypertensive, and alpha-adrenolytic activity” (Eur J Med Chem, 2009)

Experiments:
Format in all cases: functional, Artery
[1] = tested on: Rattus norvegicus; assay: Hypotensive activity in normotensive Wistar rat assessed as diastolic blood pressure at 5 mg/kg, iv after 60 mins (Rvb=125.5 +/- 0.6 mmHg)
[2] = tested on: Rattus norvegicus; assay: Hypotensive activity in normotensive Wistar rat assessed as systolic blood pressure at 5 mg/kg, iv after 5 mins (Rvb=140.5 +/- 1.1 mmHg)
[3] = tested on: Rattus norvegicus; assay: Hypotensive activity in normotensive Wistar rat assessed as systolic blood pressure at 5 mg/kg, iv after 5 mins (Rvb=139 +/- 0.6 mmHg)
[4] = tested on: Rattus norvegicus; assay: Hypotensive activity in normotensive Wistar rat assessed as systolic blood pressure at 5 mg/kg, iv after 5 mins (Rvb=141.3 +/- 6.4 mmHg)

Cl.Cl.O=C1N(CC(O)CN2CCN(c3ccccc3)CC2)CCC1(c1ccccc1)c1ccccc1 (centres undefined)
Activity [1]: 109.5 mmHg | Activity [2]: 135.5 mmHg

COc1ccccc1N1CCN(CC(O)CN2CCC(c3ccccc3)(c3ccccc3)C2=O)CC1.Cl.Cl (centres undefined)
Activity [3]: 125 mmHg

Cc1ccccc1N1CCN(CC(O)CN2CCC(c3ccccc3)(c3ccccc3)C2=O)CC1.Cl.Cl (centres undefined)
Activity [4]: 132.3 mmHg
